According to patent publication US9944598B2, “Mono- or di-substituted indole derivatives as dengue viral replication inhibitors” (priority 2014, dated 2018):

Columns and labels:
[1] = test system: DENV-3 strain H87 prototype; assay: Tetravalent RT-qPCR assay Protocol B, serotype 3; format: cell-based; conditions: Dengue virus, DENV3, 168 h, RT-qPCR serotype 3 H87, Vero cells, 7 days
Description: (§1) Vero cells (4×10^4) were seeded in 96-well plates. After one day, cell culture medium was replaced with 100 μL assay medium containing a 2×, 3× or 5× serial dilution of the compound (concentration range: 50 μg/mL-0.00038 μg/mL, 50 μg/mL-0.0076 μg/mL, and 50 μg/mL-0.00013 μg/mL, respectively) and 100 μL of dengue virus dilution, where a Ct of ˜20 is achieved in RTqPCR. Following a 2 hour incubation period, the cell monolayer was washed 3 times with assay medium to remove residual, non-adsorbed virus and cultures were further incubated for either 4 days (DENV-2 NGC-Tongalike) or 7 days (DENV-1 Djibouti strain D1/H/IMTSSA/98/606, DENV-3 strain H87 prototype, DENV-4 strain H241) in the presence of the inhibitor. Supernatant was harvested and viral RNA load was determined by real-time quantitative RT-PCR. The 50% effective concentration (EC50), which is defined as the compound concentration that is required to inhibit viral RNA replication by 50%, was determined using logarithmic interpolation (Tables 7 and 8).
(§2) RNA was isolated from 100 μL supernatant with the NucleoSpin 96 Virus kit (Filter Service, Düren, Germany) as described by the manufacturer. The sequences of the TaqMan primers (DENV-For, DENV-Rev; Table 5) and TaqMan probes (DENV-Probe Table 5) were selected from non-structural gene 3 (NS3) or NSS, of the respective flaviviruses using Primer Express software (version 2.0; Applied Biosystems, Lennik, Belgium). The TaqMan probe was fluorescently labelled with 6-carboxyfluorescein (FAM) at the 5′ end as the reporter dye, and with minor groove binder (MGB) at the 3′ end as the quencher (Table 5). One-step, quantitative RT-PCR was performed in a total volume of 25 μL, containing 13.9375 μL H2O, 6.25 μL master mix (Eurogentec, Seraing, Belgium), 0.375 μL forward primer, 0.375 μL reverse primer, 1 μL probe, 0.0625 μL reverse transcriptase (Eurogentec) and 3 μL sample. RT-PCR was performed using the ABI 7500 Fast Real-Time PCR System (Applied Biosystems, Branchburg, N.J., USA) using the following conditions: 30 min at 48° C. and 10 min at 95° C., followed by 40 cycles of 15 s at 95° C. and 1 min at 60° C. The data was analyzed using the ABI PRISM 7500 SDS software (version 1.3.1; Applied Biosystems). For absolute quantification, standard curves were generated using 10-fold dilutions of template preparations of known concentrations.

[2] = test system: DENV-1 Djibouti strain D1/H/IMTSSA/98/606; assay: Tetravalent RT-qPCR assay Protocol B, serotype 1; format: cell-based; conditions: Dengue virus, DENV1, 168 h, RT-qPCR serotype 1 Djibouti, Vero cells, 7 days
Description: as §1, §2

[3] = test system: DENV-2 16681 strain labeled with eGFP; assay: DENV-2 antiviral assay (eGFP fluorescence, Vero cells); format: cell-based, Dengue virus; conditions: DENV-2 16681 eGFP, MOI 0.5, 3 days
Description: The antiviral activity of all the compounds of the invention was tested against DENV-2 16681 strain which was labeled with enhanced green fluorescent protein (eGPF). The culture medium consists of minimal essential medium supplemented with 2% of heat-inactivated fetal calf serum, 0.04% gentamycin (50 mg/mL) and 2 mM of L-glutamine. Vero cells, obtained from ECACC, were suspended in culture medium and 25 μL was added to 384-well plates (2500 cells/well), which already contain the antiviral compounds. Typically, these plates contain a 4-fold serial dilution of 9 dilution steps of the test compound at 200 times the final concentration in 100% DMSO (200 nL). In addition, each compound concentration is tested in quadruplicate (final concentration range: 25 μM-0.00038 μM). Finally, each plate contains wells which are assigned as virus controls (containing cells and virus in the absence of compound), cell controls (containing cells in the absence of virus and compound) and medium controls (containing medium in the absence of cells, virus and compounds). To the wells assigned as medium control, 25 μL of culture medium was added instead of Vero cells. Once the cells were added to the plates, the plates were incubated for 30 minutes at room temperature to allow the cells to distribute evenly within the wells. Next, the plates were incubated in a fully humidified incubator (37° C., 5% CO2) until the next day. Then, DENV-2 strain 16681, labeled with eGFP, was added at a multiplicity of infection (MOI) of 0.5. Therefore, 15 μL of virus suspension was added to all the wells containing test compound and to the wells assigned as virus control. In parallel, 15 μL of culture medium was added to the medium and cell controls. Next, the plates were incubated for 3 days in a fully humidified incubator (37° C., 5% CO2). At the day of the read out, the eGFP fluorescence was measured using an automated fluorescence microscope at 488 nm (blue laser). Using an in-house LIMS system, inhibition dose response curves for each compound were calculated and the half maximal effective concentration (EC50) was determined. Therefore, the percent inhibition (I) for every test concentration is calculated using the following formula: I=100*(ST−SCC)/(SVC−SCC); ST, SCC and SVC are the amount of eGFP signal in the test compound, cell control and virus control wells, respectively. The EC50 represents the concentration of a compound at which the virus replication is inhibited with 50%, as measured by a 50% reduction of the eGFP fluorescent intensity compared to the virus control. The EC50 is calculated using linear interpolation (Table 1).

For `COc1cc(NC(C(=O)c2c[nH]c3cc(F)ccc23)c2ccc(Cl)cc2OC)cc(OCCO)c1` (single isomer, unassigned) [Compound 1A, 2-(4-chloro-2-methoxyphenyl)-1-(6-fluoro-1H-indol-3-yl)-2-((3-(2-hydroxyethoxy)-5-methoxyphenyl)amino)ethanone], the EC50 [1] was < 15 nM, the EC50 [2] was 22 nM and the EC50 [3] was 0.81 nM.

Work on `COc1cc(NC(C(=O)c2c[nH]c3c(C)c(F)ccc23)c2ccc(Cl)cc2OC)cc(OCCO)c1` (single isomer, unassigned) [Compound 2A, 2-(4-chloro-2-methoxyphenyl)-1-(6-fluoro-7-methyl-1H-indol-3-yl)-2-((3-(2-hydroxyethoxy)-5-methoxyphenyl)amino)ethanone] yielded an EC50 [1] of 21 nM, an EC50 [2] of 17 nM and an EC50 [3] of 0.81 nM.

Molecule `COc1cc(NC(C(=O)c2c[nH]c3c(C)c(Cl)ccc23)c2ccc(Cl)cc2OC)cc(OCCO)c1` (single isomer, unassigned) [Compound 3A, 2-(4-chloro-2-methoxyphenyl)-1-(6-chloro-7-methyl-1H-indol-3-yl)-2-((3-(2-hydroxyethoxy)-5-methoxyphenyl)amino)ethanone] has an EC50 [1] of 20 nM, an EC50 [2] of 18 nM and an EC50 [3] of 0.34 nM.

`COc1cc(NC(C(=O)c2c[nH]c3cc(Cl)ccc23)c2ccc(Cl)cc2OC)cc(OCCO)c1` (single isomer, unassigned) [Compound 4A, 1-(6-chloro-1H-indol-3-yl)-2-(4-chloro-2-methoxyphenyl)-2-((3-(2-hydroxyethoxy)-5-methoxyphenyl)amino)ethanone] gave an EC50 [1] of 29 nM, an EC50 [2] of 20 nM and an EC50 [3] of 0.7 nM.

In the case of `COc1cc(NC(C(=O)c2c[nH]c3cc(OC)ccc23)c2ccc(Cl)cc2OC)cc(OCCO)c1` (single isomer, unassigned) [Compound 5A, 2-(4-chloro-2-methoxyphenyl)-2-((3-(2-hydroxyethoxy)-5-methoxyphenyl)amino)-1-(6-methoxy-1H-indol-3-yl)ethanone], the EC50 [1] is reported as 25 nM, the EC50 [2] is reported as 19 nM and the EC50 [3] is reported as 0.84 nM.

For `COc1cc(NC(C(=O)c2c[nH]c3cc(OC)c(C)cc23)c2ccc(Cl)cc2OC)cc(OCCO)c1` (single isomer, unassigned) [Compound 6A, 2-(4-chloro-2-methoxyphenyl)-2-((3-(2-hydroxyethoxy)-5-methoxyphenyl)amino)-1-(6-methoxy-5-methyl-1H-indol-3-yl)ethanone], the EC50 [1] was < 15 nM, the EC50 [2] was < 15 nM and the EC50 [3] was 0.82 nM.

With `COc1cc(NC(C(=O)c2c[nH]c3cc(OC)c(F)cc23)c2ccc(Cl)cc2OC)cc(OCCO)c1` (single isomer, unassigned) [Compound 7A, 2-(4-chloro-2-methoxyphenyl)-1-(5-fluoro-6-methoxy-1H-indol-3-yl)-2-((3-(2-hydroxyethoxy)-5-methoxyphenyl)amino)ethanone] the EC50 [1] was < 17 nM, the EC50 [2] was 20 nM and the EC50 [3] was 1.1 nM.

`COc1cc(NC(C(=O)c2c[nH]c3c(C)cc(F)cc23)c2ccc(Cl)cc2OC)cc(OCCO)c1` (single isomer, unassigned) [Compound 8A, 2-(4-chloro-2-methoxyphenyl)-1-(5-fluoro-7-methyl-1H-indol-3-yl)-2-((3-(2-hydroxyethoxy)-5-methoxyphenyl)amino)ethanone] gave an EC50 [1] of 32 nM, an EC50 [2] of 17 nM and an EC50 [3] of 1.2 nM.

Molecule `COc1cc(NC(C(=O)c2c[nH]c3cc(F)c(F)cc23)c2ccc(Cl)cc2OC)cc(OCCO)c1` (single isomer, unassigned) [Compound 9A, 2-(4-chloro-2-methoxyphenyl)-1-(5,6-difluoro-1H-indol-3-yl)-2-((3-(2-hydroxyethoxy)-5-methoxyphenyl)amino)ethanone] has an EC50 [1] of 18 nM and an EC50 [2] of 19 nM.

`COc1cc(NC(C(=O)c2c[nH]c3c(F)cc(C)cc23)c2ccc(Cl)cc2OC)cc(OCCO)c1` (single isomer, unassigned) [Compound 10A, 2-(4-chloro-2-methoxyphenyl)-1-(7-fluoro-5-methyl-1H-indol-3-yl)-2-((3-(2-hydroxyethoxy)-5-methoxyphenyl)amino)ethanone] showed an EC50 [1] of 27 nM, an EC50 [2] of 20 nM and an EC50 [3] of 3.2 nM.

Work on `COc1cc(NC(C(=O)c2c[nH]c3c(F)c(F)ccc23)c2ccc(Cl)cc2OC)cc(OCCO)c1` (single isomer, unassigned) [Compound 11B, 2-(4-chloro-2-methoxyphenyl)-1-(6,7-difluoro-1H-indol-3-yl)-2-((3-(2-hydroxyethoxy)-5-methoxyphenyl)amino)ethanone] yielded an EC50 [1] of 26 nM, an EC50 [2] of 25 nM and an EC50 [3] of 1.2 nM.
